# In patent publication US8022235B2, “Compositions of phospholipid ether boronic acids and esters and methods for their synthesis and use” (Cellectar, Inc., priority 2007, dated 2011):
# “Also recorded” adds a separate entry of the source.
# Legend:
# [1] = test system: animal tumor models; details: radioiodinated analogs, xenograft and spontaneous tumor rodent models, previous reports; cited from earlier work
# [2] = test system: carrageenan-induced granulomas; test: Uptake into inflammatory lesions; design: species or system rats; details: rat, in vivo
# Excerpt: The utility of tumor tracers like ^67Ga-citrate and ^18F-FDG is limited by their lack of specificity to distinguish neoplasm from inflammation. Further, accumulation of FDG in the urine interferes with visualization of pelvic and abdominal abnormalities. This lack of specificity is a significant clinical issue in patients with cancer. […] Some exemplary embodiments of PLE analogs discussed herein are illustrated in FIG. 1. […] Although FDG-PET has paved the way for hybrid imaging, its lack of tumor cell specificity will always limit its diagnostic efficacy. New molecularly targeted agents, like NM404, which display universal tumor uptake and selective retention regardless of location, as well as selectivity for malignant tumor cells and not inflammatory or hyperplastic lesions, represents a significant improvement in the detection, targeting and characterization of cancer.
# [3] = biological target: T1, O-Alkyl glycerol monooxygenase (AGMO) (Homo sapiens, UniProt Q6ZNB7); test: Microsomal AGMO substrate assay; format: biochemical; details: microsomal enzyme preparation
# T1 construct: Using a microsomal AGMO enzyme preparation; from tissue
# Procedure: (§1) Formal metabolism studies were conducted on several PLE analogs including NM324, the predecessor of NM404. In these studies, each agent was examined to determine its ability to serve as substrates for enzymes associated with PLE metabolism. Three major enzymatic pathways are involved in the metabolism of PLE. O-Alkyl glycerol monooxygenase (AGMO) is responsible for cleavage of the alkyl ether linkage at C-1 to form either the long chain fatty alcohol or subsequently, the corresponding fatty acid. Phospholipases C (PLC) and D (PLD), on the other hand, give rise to the glycerol or phosphatidic acid products, respectively.
# [4] = test system: human lung cancer; test: Clinical evaluation of NM324, scintigraphy; format: in vivo; details: for tumor uptake / detection: scintigraphy in lung cancer patients
# Excerpt: FIG. 10 is a scintigraphic image of the anterior chest of Patient 03 acquired at 1, 2, and 6 days after iv administration of 1 mCi ^131I-NM324.
# Based upon this work, NM404 [18-(4-iodophenyl)-octadecyl phosphocholine] emerged due to its enhanced ability to localize in tumor, its increased metabolic clearance from the liver, and its longer plasma half-life.
# [5] = test system: animal tumor models; test: Imaging and biodistribution across animal tumor models (general statements); details: mammary, prostate, squamous cell carcinoma, ovarian, colorectal, melanoma
# Excerpt: See, for example, U.S. patent application Ser. Nos. 10/906,687, 11/177,740, 11/316,620 and 11/382,645. Due to deficiencies in metabolic phospholipase enzymes in the membranes of malignant tumor cells, the prevailing hypothesis for this specificity is that phospholipid ether analogs become trapped exclusively in tumor cell membranes because of their inability to become metabolized and eliminated by the cancerous cell. Thus, the differential clearance rates of phospholipid ethers from normal cells versus neoplastic tumor cells are responsible for this specificity.
# The reason for the retention of PLE and analogs in cancer cells remains unknown. Without being held to any particular theory, however, the prevailing hypothesis, is that radioiodinated PLE and APC analogs become trapped in tumor cell membranes because of their inability to be metabolized and eliminated. On the other hand, such lipid molecules are metabolized and cleared by normal tissues, including the liver.
# These PLE analogs are specifically designed to incorporate aromatic radioiodine in order to render the molecule stable towards in vivo deiodination.
# [6] = biological target: T2, PLC isolated from Bacillus cereus (Bacillus cereus, UniProt P09598); test: PLC substrate assay; format: biochemical
# T2 construct: PLC isolated from Bacillus cereus; endogenous in cells; host or cells: Bacillus cereus
# Procedure: as §1
# [7] = Blood plasma kinetics; design: species or system rats; details: rat, in vivo
# [8] = test system: serum proteins; details: cited from earlier work
# [9] = test system: rat mammary tumor; test: Biodistribution of 125I-NM324 in rat mammary tumor model; format: in vivo
# [10] = test system: non-small cell lung cancer (NSCLC); test: Initial human pharmacokinetic evaluation, planar gamma-camera scintigraphy; format: in vivo; details: <1 mCi injection, preliminary, n=3
# Excerpt: FIG. 6A-C images of lung cancer patient, posterior whole body planar nuclear medicine image (A) 4 days after iv administration of ^131I-NM404 (0.8 mCi) to a patient with non small cell lung cancer (6 cm dia., arrow). Lung tumor is easily detected in corresponding axial (B) and coronal (C) computed tomography (CT) scans;
# In preparation for human clinical trials, unlabeled NM404 was subjected to independent (University of Buffalo Toxicology Research Center) acute toxicity evaluation at 1200 times the anticipated imaging mass dose in rats and rabbits. […] Due to its selective tumor uptake and retention properties in a variety of rodent tumor models and subsequent excellent safety profile in rats and rabbits, NM404 was selected to undergo initial human pharmacokinetic evaluation in non-small cell lung cancer (NSCLC) patients. Patients underwent planar gamma-camera scintigraphy after receiving an injection of ^131I-NM404 (<1 mCi).
# [11] = test system: Prostate MatLyLu; test: Gamma camera scintigraphy screen in Dunning R3327 (MAT LyLu) prostate cancer model; format: in vivo, Copenhagen rats; details: radioiodinated analog 30-40 μCi, images incl. 24 and 48 hours post injection
# Procedure: The avidity of PLE and APC analogs to localize in tumors was evaluated in several animal models. The PC-3 model represents a human tumor cell line that was used to determine the target (tumor) to non-target ratio of NM404 and NM412 in head to head comparison in order to select a candidate for an initial human pharmacokinetic trial in prostate cancer patients. The MatLyLu (Dunning R3327 rat) model, a rat prostate tumor line, was used specifically to screen 9 specific analogs prior to entering them into control for dosimetry and tumor-bearing animals for determining tumor/background ratios. Finally, the Walker-256 carcinosarcoma model was used for quantitative tissue distribution purposes.
# In order to expedite the screening process and minimize the number of tumor bearing animals utilized in multiple time point tissue distribution studies, new radioiodinated homologs were imaged by gamma camera scintigraphy in the rat Dunning […] (MAT LyLu strain) prostate cancer model. Thus, male Copenhagen rats received a subcutaneous injection of MAT LyLu cells (1×10^6 cells) in the thigh 10-14 days prior to injection of the radioiodinated PLE analogs (30-40 μCi) in 2% Tween-20 solution. Gamma camera images were obtained at multiple time points including 24 and 48 hours post injection. […] Tissue distribution of radioactivity in rats bearing Walker-256 carcinosarcoma was assessed at various time intervals following intravenous administration of the radioiodinated chain length homologs. The first group of compounds that was tested included three alkylphosphocholines: a shorter chain analog with seven carbons NM396 and two analogs with a longer chain length, 13 (NM397, C15 alkyl chain length) and 1 (NM404, C18 alkyl chain length).
# In order to decrease liver uptake and prolong the plasma phase, the inventors examined 9 structural analogs of NM324 to identify agents that would display improved tumor-to-background tissue ratios with decreased liver uptake. The new PLE analogs were synthesized and radiolabeled with ^125I for initial image analysis in Copenhagen rats bearing Dunning R3327 prostate tumors. […] NM404 was therefore selected to undergo further imaging and biodistribution analysis in a variety of animal-tumor models.
# [12] = test system: human PC-3 prostate tumor xenografts; test: Scintigraphy, microPET and tissue distribution in PC-3 tumor model; format: in vivo, SCID mice; details: advanced metastatic PC-3, 48 h post iv injection
# [13] = excess boron ingestion; cited from earlier work
# T2 sequence (P09598 39-283 limits assumed): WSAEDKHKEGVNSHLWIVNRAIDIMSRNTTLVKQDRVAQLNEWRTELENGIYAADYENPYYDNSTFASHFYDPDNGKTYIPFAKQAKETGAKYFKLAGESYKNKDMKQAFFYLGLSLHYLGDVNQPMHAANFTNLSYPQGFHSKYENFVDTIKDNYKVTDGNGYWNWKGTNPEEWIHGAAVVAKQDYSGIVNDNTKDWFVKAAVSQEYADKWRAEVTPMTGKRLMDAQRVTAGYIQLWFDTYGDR
# T1 sequence (Q6ZNB7 whole entry, species assumed): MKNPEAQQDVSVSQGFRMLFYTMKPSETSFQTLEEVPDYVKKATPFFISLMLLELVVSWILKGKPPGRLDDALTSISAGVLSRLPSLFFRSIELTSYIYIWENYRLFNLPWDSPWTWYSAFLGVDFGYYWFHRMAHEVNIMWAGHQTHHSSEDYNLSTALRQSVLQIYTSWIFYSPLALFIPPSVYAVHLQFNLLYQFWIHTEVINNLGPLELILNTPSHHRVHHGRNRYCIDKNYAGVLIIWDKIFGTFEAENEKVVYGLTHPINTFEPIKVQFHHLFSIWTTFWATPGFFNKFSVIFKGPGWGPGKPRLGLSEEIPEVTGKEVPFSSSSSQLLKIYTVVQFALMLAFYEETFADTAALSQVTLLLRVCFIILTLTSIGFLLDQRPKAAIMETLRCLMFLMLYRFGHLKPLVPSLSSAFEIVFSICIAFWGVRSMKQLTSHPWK
smiles,measurement,setting,value
COC(COCCCCCCCCCCCCc1cccc([125I])c1)COP(=O)([O-])OCC[N+](C)(C)C (stereo not drawn) [NM294],selective retention by tumors,[1],selectively retained by a variety of human and animal tumors
"C[N+](C)(C)CCOP(=O)([O-])OCCCCCCCCCCCCc1cccc(I)c1 [NM324, 12-(m-iodophenyl)dodecyl phosphocholine]",uptake and retention in granulomas,[2],no uptake and retention
same,substrate for AGMO,[3],not a substrate
same,liver uptake,[4]; initial human pharmacokinetic studies,high liver uptake values; also recorded: unacceptable accumulation in liver tissue; also recorded: images were complicated by high liver radioactivity
same,tumor uptake / detection,[4],detected tumors
same,tumor visualization by scintigraphy,[5],successfully visualized
same,selective retention by tumors,[1],selectively retained by a variety of human and animal tumors
same,hydrolysis by PLC,[6],not hydrolyzed
same,elimination half life time in plasma,[7],2.43 h
CCCCCCCCCCCCCCCCCCOCC(COP(=O)([O-])OCC[N+](C)(C)C)OC (stereo not drawn) [ET-18-OCH3],ether lipid bound to HDL,[8],about 6%
same,ether lipid bound to albumin,[8],71%
C[N+](C)(C)CCOP(=O)([O-])OCCCCCCCCCCCCc1cccc([125I])c1 [Compound 125I-NM324],tumor-to-blood ratio,[9]; 96 hours,8.6
same,time of maximum tumor-to-normal tissue ratios,"[9]; rat, in vivo",96 h
C[N+](C)(C)CCOP(=O)([O-])OCCCCCCCCCCCCCCCCCCc1ccc([131I])cc1 [^131I-NM404],tumor uptake and retention,[10],tumor uptake and prolonged retention in primary lung tumors
"[3H]C(CCCCCC)C([3H])CCCCCCCC(=O)O[C@H](COC(=O)CCCCCCCCCCCCCCC)COP(=O)([O-])OCC[N+](C)(C)C (stereo partly drawn) [DPPC, 1-palmitoyl-2-[^3H]-palmitoyl-L-3-phosphatidylcholine, reference compound]",hydrolysis by PLC,[6],underwent significant hydrolysis
C[N+](C)(C)CCOP(=O)([O-])OCCCCCCCCCCCCc1cccc([131I])c1 [^131I-NM324],tumor uptake / detection,[4],Uptake is seen in the left lingular lung cancer (T) with increasing tumor-to-background ratios over time
COC(COCCCCCCCCCCCCCCCCCCc1ccc(I)cc1)COP(=O)([O-])OCC[N+](C)(C)C (stereo not drawn) [NM410],"gamma camera imaging findings (tumor, liver, abdomen)",[11],"high hepatic uptake, significant abdominal accumulation and retention or poor tumor uptake and retention; also recorded: high radioactivity levels in the liver and abdomen with little to no uptake of the agent into tumors"
C[N+](C)(C)CCOP(=O)([O-])OCCCCCCCCCCCCCCCCCCc1ccc([124I])cc1 [^124I-NM404],microPET uptake in primary tumor and lymph nodes,[12],significant uptake
"O=C([O-])CC(O)(CC(=O)[O-])C(=O)[O-].[Ga+3] [Gallium citrate, reference compound]",uptake and retention in granulomas,[2],concentrate significantly in the granulomatous lesions
OB(O)O [boric acid],excretion,[13],excreted rapidly in the urine
same,time to disappearance,[13],≤ 4 days
